Results from patent US20050214285A1, “Epitopes or mimotopes derived from the C-epsilon-3 or C-epsilon-4 domains of IgE, antagonists thereof, and their therapeutic uses” (SmithKline Beecham Biologicals, s.a. and Peptide …, priority 1999, published 2005).
“And” between values parts separate entries of the source, which are not always exact repeats. Equal entries are not always repeated. Positions of bridges follow the written chain, without caps; N, C: chain ends. Residues, ends and D or L forms follow the SMILES beside them. No end group written: not given here.

B1: recombinant FcεRIα ectodomain (receptor, UniProt P12319 26-205, looked up)
chain: VPQKPKVSLNPPWNRIFKGENVTLTCNGNNFFEVSSTKWFHNGSLSEETNSSLNIVNAKFEDSGEYKCQHQQVNESEPVYLEVFSDWLLLQASAEVVMEGQPLFLRCHGWRNWDVYKVIYYKDGEALKYWYENHNISITNATVEDSGTYYCTGKVWQLDYESEPLNITVIKAPREKYWLQ
notes: extracellular domain; also called FcεR1α ectodomain; FcεR1α

Tests used:
PTmAb0005 [1] = experiment: BIAcore affinity to PTmAb0005; assay type: binding; conditions: read-out: PTmAb BIAcore KD^Rel (μM) PTmAb0005
From the text: (§1) This involved a DNA sub-cloning transfer from the major coat protein (gVIIIp) filamentous phage display vector to a lower copy number minor phage coat protein (gIIIp) display vector with a random PCR step. […] Included in the tables are ranking orders and also BIAcore affinities where available.
(§2) Thus indicating the importance of correct presentation of the peptides of the present invention to adopt a shape which closely resembles the native target in the context of the whole IgE molecule. [drawing]

PTmAb0011 [2] = experiment: BIAcore affinity to PTmAb0011; assay type: binding, mouse; conditions: read-out: PTmAb BIAcore KD^Rel (μM) PTmAb0011
From the text: as §1, §2

PTmAb0005 [3] = experiment: Phage display ranking of peptide ligands for PTmAb0005; assay type: binding
human IgE = experiment: Immunisation of mice with peptide expressing phage; assay type: in vivo, mouse; conditions: peptide expressing phage used as immunogen
PTmAb0011 [4] = experiment: Phage display ranking of peptide ligands for PTmAb0011; assay type: binding, mouse; conditions: IgEC67 mutants (Table 8)
Outline: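 Ligands selected from phage libraries displaying XCX15, XCX10 or XAX10 peptides on gVIIIp, then transferred by sub-cloning with a random PCR step to a lower-copy gIIIp display vector. Peptides ranked by order of phage returns, with BIAcore affinities where available.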

[5] = test system: basophils from freshly harvested peripheral blood from allergic patients
From the text: Several dilutions of complete sera or IgG purified from conjugate immunised mice can be tested in presence of basophils from freshly harvested peripheral blood from allergic patients.

human chimaeric IgE = experiment: IgE plate bound ELISA: anti-human IgE reactivity in mouse serum; assay type: in vivo; conditions: for anti-IgE antibody response when presented on carriers: in vivo
Description: ELISA plates are coated with human chimaeric IgE at 1 μg/ml in pH 9.6 carbonate/bicarbonate coating buffer for 1 hour at 37° C. or overnight at 4° C. Non-specific binding sites are blocked with PBS/0.05% Tween-20 containing 5% w/v Marvel milk powder for 1 hour at 37° C. […] Polyclonal serum binding is detected with goat anti-mouse IgG-Biotin (1/2000) followed by Streptavidin-HRP (1/1000). Conjugated antibody is detected with TMB substrate at 450nm. A standard curve of PTmAb0011 is included on each plate so that the anti-IgE reactivity in serum samples can be calculated in μg/ml.
(§3) The conjugates comprising the mimotope P15 (25 μg protein/dose), described in 1.4, were administered into groups of 10 BalbC mice, adjuvanted with and oil in water emulsion containing QS21 and 3D-MPL described in WO 95/17210 . Boosting was be performed on day 21 and on day 42 and sera can be harvested on day 42 and 56. The immune response anti-peptide and anti-plate bound IgE was followed using methods described in Example 1.
The mice were bled after the last immunisation and tested for anti-IgE reactivity in the IgE plate bound ELISA. The individual, average (Av), geomean (GM), results are summarised below (SD=standard deviation).
These vaccines were administered into groups of 10 BalbC mice, and boosting was be performed on day 14 and on day 28 and sera was harvested on day 42. The immune response to anti-plate bound IgE and receptor orientated IgE, was then followed using the techniques described in example 1.4. Also, the activity of the antiserum in the inhibition of histamine release from allergic basophils was measured in the techniques described in 1.5.

biotinylated peptide = experiment: Anti-peptide ELISA of sera from immunised mice; assay type: in vivo, BalbC mice; conditions: for Anti peptide immune responses, Mid point titres, Av / Anti peptide immune responses, Mid point titres, GM / Anti peptide immune responses/mouse, Mid point titres, mouse 1 / Anti peptide immune responses/mouse, Mid point titres, mouse 2 / Anti peptide immune responses/mouse, Mid point titres, mouse 3 / Anti peptide immune responses/mouse, Mid point titres, mouse 4 / Anti peptide immune responses/mouse, Mid point titres, mouse 5 / Anti peptide immune responses/mouse, Mid point titres, mouse 6 / Anti peptide immune responses/mouse, Mid point titres, mouse 7 / Anti peptide immune responses/mouse, Mid point titres, mouse 8 / Anti peptide immune responses/mouse, Mid point titres, mouse 9 / Anti peptide immune responses/mouse, Mid point titres, mouse 10: conjugated to BSA, 14 days after third vaccination; for Anti peptide immune responses, Mid point titres, Av: average; for Anti peptide immune responses, Mid point titres, GM: geomean
Description: The anti-peptide and anti-carrier immune responses were investigated using an ELISA technique outlined below. Microtiterplates (Nunc) are coated with the specific antigen in PBS (4° overnight) with either: Streptavidin at 2 μg/ml (followed by incubation with biotinylated peptide (1 μM) for 1 hour at 37° C.), Wash 3×PBS-Tween 20 0.1%. Saturate plates with PBS-BSA 1%-Tween 20 0.1% (Sat buffer) for 1 hr at 37°. Add 1° antibody=sera in two-step dilution (in Sat buffer), incubate 1 hr 30 minutes at 37°. Wash 3×. Add 2° anti-mouse Ig (or anti-mouse isotype specific monoclonal antibody) coupled to HRP. Incubate 1 hr at 370. Wash 5×. Reveal with TMB (BioRad) for 10 minutes at room temperature in the dark. Block reaction with 0.4N H2SO4.
as §3

allergic human basophils = experiment: Histamine release inhibition from allergic human basophils; assay type: cell-based; conditions: antiserum of an individual immunised mouse, dilution 1/30
Description: Blocking activity of anti-P15 antibodies in the antiserum was evaluated by the measuring of the inhibition of the histamine release induced by the allergen. Histamine release and inhibition was measured as described in example 3. As P15 is a mimotope of P1, PTmAb0011 was used as a control as it is known to bind to the same epitope (P1).

Cε2-4 = target: T1, Cε2-4 (human, UniProt P01854-1 106-428); experiment: ELISA, graded
T1 construct: also called WT cε2-4; cε2-4 fragment
T1 sequence (P01854 other isoform, or with tags, fused parts or gaps limits assumed): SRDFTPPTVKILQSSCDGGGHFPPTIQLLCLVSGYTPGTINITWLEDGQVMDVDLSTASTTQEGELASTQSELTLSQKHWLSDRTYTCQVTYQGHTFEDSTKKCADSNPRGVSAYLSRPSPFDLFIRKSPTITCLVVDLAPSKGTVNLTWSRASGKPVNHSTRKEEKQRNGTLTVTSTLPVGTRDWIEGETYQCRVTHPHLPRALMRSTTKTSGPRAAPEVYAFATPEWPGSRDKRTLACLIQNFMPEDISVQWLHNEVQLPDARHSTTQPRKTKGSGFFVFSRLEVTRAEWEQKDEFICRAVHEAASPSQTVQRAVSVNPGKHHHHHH

[6] = BalbC mice, 25 μg protein/dose, day 14 post third vaccination

| Molecule | anaphylactogenicity of the induced antiserum [5] | anti-IgE antibody response when presented on carriers (human chimaeric IgE) | Anti peptide immune responses, Mid point titres, Av (biotinylated peptide) | Anti peptide immune responses, Mid point titres, GM (biotinylated peptide) | Anti peptide immune responses/mouse, Mid point titres, mouse 1 (biotinylated peptide) | Anti peptide immune responses/mouse, Mid point titres, mouse 2 (biotinylated peptide) | Anti peptide immune responses/mouse, Mid point titres, mouse 3 (biotinylated peptide) | Anti peptide immune responses/mouse, Mid point titres, mouse 4 (biotinylated peptide) | Anti peptide immune responses/mouse, Mid point titres, mouse 5 (biotinylated peptide) | Anti peptide immune responses/mouse, Mid point titres, mouse 6 (biotinylated peptide) | Anti peptide immune responses/mouse, Mid point titres, mouse 7 (biotinylated peptide) | Anti peptide immune responses/mouse, Mid point titres, mouse 8 (biotinylated peptide) | Anti peptide immune responses/mouse, Mid point titres, mouse 9 (biotinylated peptide) | Anti peptide immune responses/mouse, Mid point titres, mouse 10 (biotinylated peptide) | further results |
| --- | --- | --- | --- | --- | --- | --- | --- | --- | --- | --- | --- | --- | --- | --- | --- |
| CC[C@H](C)[C@@H]1NC(=O)[C@H](Cc2ccccc2)NC(=O)[C@@H](N)CSSC[C@@H](C(=O)N2CCC[C@H]2C(=O)N[C@@H](CCCNC(=N)N)C(=O)N[C@@H](CCC(=O)O)C(=O)O)NC(=O)[C@H](CC(C)C)NC(=O)[C@H](CCC(=O)O)NC(=O)[C@H](CC(C)C)NC(=O)[C@H](CC(=O)O)NC(=O)[C@H](C)NC(=O)[C@H](CCSC)NC(=O)[C@H](CCC(N)=O)NC(=O)[C@H](CCCCN)NC(=O)[C@H](CC(N)=O)NC1=O [IgEC67-8] (H-CFINKQMADLELCPRE-OH; disulfide 1-13) |  |  |  |  |  |  |  |  |  |  |  |  |  |  | Kd (PTmAb0005 [1]): 0.0094 µM; Kd (PTmAb0011 [2]): 0.066 µM; Rel. Rank A (PTmAb0005 [3]; IgEC67-8 mutants (Table 9)): 1.00; Rel. Rank B (PTmAb0005 [3]; IgEC67-8 mutants (Table 9)): 1.00; PTmAb Rank 0005 (PTmAb0005 [3]; IgEC67 mutants (Table 8)): 4.36; anti-human IgE response in mice (human IgE): capable of inducing an anti-human IgE response in mice; PTmAb Rank 0011 (PTmAb0011 [4]): 2.4 |
| CSQKHWLSDRT-NH2 [Peptide P17] | non anaphylactogenic | strong anti-IgE antibody responses | 5446 | 4656 | 100 | 4349 | 2850 | 3434 | 6133 | 2231 | 5085 | 2991 | 13070 | 8874 |  |
| CSTTQEGELA-NH2 [Peptide P16] | non anaphylactogenic | strong anti-IgE antibody responses | 1882 | 1478 | 1891 | 649 | 1299 | 2349 | 591 | 1474 | 4605 | 918 | 4177 | 865 |  |
| P15-BSA: P15 (CLEDGQVMDVDLL) conjugated to BSA (CLEDGQVMDVDLL-NH2; also: conjugated to BSA) [Peptide P15-BSA] | Neither antiserum generated with P15-BSA or P15-PD was shown to be anaphylactogenic |  |  |  |  |  |  |  |  |  |  |  |  |  | Anti-IgE responses (μg/ml (PTmAb0011)) Average (human chimaeric IgE; [6]): 2.2 µg/mL; Anti-IgE responses (μg/ml (PTmAb0011)) Geomean (human chimaeric IgE; [6]): 1.0 µg/mL; % inhibition of histamine release (allergic human basophils): 67% and 57%; Anti-peptide responses (Mid point titre) Average (biotinylated peptide; [6]): 49591; Anti-peptide responses (Mid point titre) Geomean (biotinylated peptide; [6]): 48719 |
| B1 |  |  |  |  |  |  |  |  |  |  |  |  |  |  | binding result (Cε2-4): binds |
